Holding throughout (assay): normalised viability (% of control), CellTiter-Blue; higher = more viable cells (about 100 = DMSO control)
Common to all, as to conditions: incubation time: 72 h

For assay [1], the system named is CAL-148. Here is the method:
(§1)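 DSRT, CellTiter-Blue viability, 72 h incubation. Signal is normalised to DMSO and benzethonium chloride controls. Value is the normalised response at dose 7.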

The test system of assay [2] is CAL-85-1. On the procedure: as §1
Assay [3] has as its system MDA-MB-453. Here is the method:
as §1

In a further assay the test system is HDQ-P1. Here is the method: as §1
For assay [4], the system named is CAL-51. Here is the method:
as §1

For assay [5], the system named is DU-4475. Here is the method: as §1
Assay [6] concerns CAL-148. On the procedure: (§2)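 DSRT, CellTiter-Blue viability, 72 h incubation. Signal is normalised to DMSO and benzethonium chloride controls. Value is the normalised response at dose 8.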
This is another data set of the same source.

The subject of assay [7] is CAL-85-1. On the procedure:
as §2
This is another data set of the same source.

In assay [8] the test system is MDA-MB-453. Here is the method:
as §2
This is another data set of the same source.

The subject of assay [9] is CAL-51. Here is the method: as §2
The source holds these as a separate data set.

In assay [10] the test system is DU-4475. Here is the method: as §2
The source holds these as a separate data set.

Assay [11] has as its system CAL-148. On the procedure: (§3)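 DSRT, CellTiter-Blue viability, 72 h incubation. Signal is normalised to DMSO and benzethonium chloride controls. Value is the normalised response at dose 6.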
This is another data set of the same source.

Assay [12] deals with CAL-85-1. Here is the method: as §3
The source holds these as a separate data set.

Assay [13] has as its system MDA-MB-453. Here is the method: as §3
This is another data set of the same source.

Assay [14] deals with CAL-51. On the procedure: as §3
This is another data set of the same source.

For assay [15], the system named is DU-4475. On the procedure:
as §3
The source holds these as a separate data set.

Where “and” joins values, the source holds several entries; their conditions need not be identical. Identical values can stand only once.

Regarding `O=C(NC[C@H](O)CO)c1ccncc1Nc1ccc(I)cc1F` (1000 nM), the normalised viability in the assay on CAL-148 [1] was 77.3%; in the assay with CAL-85-1 [2], 65.3%; with MDA-MB-453 [3], 77.4%; in the assay on HDQ-P1, 58.5%; with CAL-51 [4], 78.2%; in the assay on DU-4475 [5], 0.41%.

Turning to `Cn1cc(CNCC2CCN(c3ncc(C(=O)NO)cn3)CC2)c2ccccc21` (100 nM), the normalised viability in the assay with CAL-148 [1] was 3.75%; with CAL-85-1 [2], 16.6%; in the assay on MDA-MB-453 [3] it was 2.32%; in the assay with HDQ-P1, 33.5%; in the assay with CAL-51 [4], 36.7%; with DU-4475 [5], 12.3%.

Take `CNC(=O)c1cc(Oc2ccc(NC(=O)Nc3ccc(Cl)c(C(F)(F)F)c3)cc2)ccn1` [Sorafenib] (300 nM): the normalised viability in the assay on CAL-148 [6] was 93.4% and 99%; in the assay with CAL-85-1 [7], 83.4% and 99.7%; with MDA-MB-453 [8] it was 96.8% and 108%; with CAL-51 [9] it was 109% and 102%; with DU-4475 [10] it was 104% and 99.8%.

In the case of `CS(=O)(=O)N1CCN(Cc2cc3nc(-c4cccc5[nH]ncc45)nc(N4CCOCC4)c3s2)CC1` [GDC-0941] (1000 nM), the normalised viability was determined as 54% in the assay with CAL-148 [1]; 58.4% in the assay on CAL-85-1 [2]; 12% with MDA-MB-453 [3]; 25% in the assay with HDQ-P1; 39.5% in the assay with CAL-51 [4]; 105% in the assay on DU-4475 [5].

As for `c1cc(CN2CCCNCCNCCCNCC2)ccc1CN1CCCNCCNCCCNCC1` [Plerixafor] (250 nM), the normalised viability in the assay with CAL-148 [1] was 84.4%; in the assay with CAL-85-1 [2], 94.3%; in the assay with MDA-MB-453 [3], 104%; in the assay on HDQ-P1, 121%; in the assay on CAL-51 [4] it was 105%; in the assay with DU-4475 [5], 97.2%.

Turning to `Nc1nc(=O)c2c([nH]1)NCC(CNc1ccc(C(=O)N[C@@H](CCC(=O)O)C(=O)O)cc1)N2C=O` (mixture of isomers) [Folinic acid] (99 nM), the normalised viability in the assay with CAL-148 [1] was 97.8%; with CAL-85-1 [2], 87.2%; with MDA-MB-453 [3] it was 103%; in the assay on HDQ-P1, 134%; in the assay on CAL-51 [4] it was 93%; in the assay on DU-4475 [5] it was 104%.

`COc1nc(N)nc2c1ncn2[C@@H]1O[C@H](CO)[C@@H](O)[C@@H]1O` [Nelarabine] (300 nM): the normalised viability with CAL-148 [11] is 88.9% and 89.2%; with CAL-85-1 [12], 100% and 97.8%; with MDA-MB-453 [13], 102% and 99.1%; in the assay with CAL-51 [14] it was 101% and 97.9%; in the assay with DU-4475 [15], 113% and 116%.

As for `O=S(=O)(c1cccc2cnccc12)N1CCCNCC1` [Fasudil] (1000 nM), the normalised viability was 90.7% in the assay with CAL-148 [1]; 101% in the assay on CAL-85-1 [2]; 101% in the assay with MDA-MB-453 [3]; 111% in the assay on HDQ-P1; 115% in the assay with CAL-51 [4]; 120% in the assay on DU-4475 [5].
